Experimental data from ChEMBL document CHEMBL3526058, “Investigating the enteroenteric recirculation of apixaban, a factor Xa inhibitor: administration of activated charcoal to bile duct-cannulated rats and dogs receiving an intravenous dose and use of drug transporter knockout rats” (Drug Metab Dispos, 2013).

Tests used:
[1] = Mean residence time in bile duct-cannulated beagle dog at 1 mg/kg, iv administered as 5 mins infusion; type: ADME, organism-based, Canis lupus familiaris; design: dose 1 mg/kg, route intravenous; conditions: in vivo
Rattus norvegicus [2] = assay: Intestinal clearance in BCRP-knockout Sprague-Dawley rat at 2 mg/kg, iv relative to total clearance; type: ADME, organism-based; design: dose 2 mg/kg, route intravenous; conditions: in vivo
[3] = Plasma protein binding in Sprague-Dawley rat; type: ADME, cell-free; conditions: read-out: PPB (converted)
[4] = Drug recovery in feces of bile duct-cannulated Sprague-Dawley rat at 30 mg/kg, po measured up to 48 hrs; type: ADME, organism-based; design: dose 30 mg/kg, route oral; conditions: read-out: Drug recovery
[5] = Drug recovery in feces of bile duct-cannulated BCRP-knockout Sprague-Dawley rat at 2 mg/kg, iv measured up to 24 hrs; type: ADME, organism-based; design: dose 2 mg/kg, route intravenous; conditions: read-out: Drug recovery
[6] = Drug recovery in feces of bile duct-cannulated beagle dog at 1 mg/kg, iv administered as 5 mins infusion followed by activated charcoal administration 10 to 420 mins post compound measured up to 72 hrs; type: ADME, organism-based, Canis lupus familiaris; design: dose 1 mg/kg, route intravenous; conditions: in vivo
[7] = Mean residence time in wild-type bile duct-cannulated Sprague-Dawley rat at 2 mg/kg, iv administered 0.125 hr post GF-120918 treatment; type: ADME, organism-based; design: dose 2 mg/kg, route intravenous; conditions: in vivo, with GF-120918
[8] = Plasma protein binding in beagle dog; type: ADME, cell-free, Canis lupus familiaris; conditions: read-out: PPB (converted)
[9] = Renal clearance in wild-type 30 mins activated charcoal pre-treated bile duct-cannulated Sprague-Dawley rat at 2 mg/kg, iv followed by activated charcoal administration 5 to 180 mins post compound dosing; type: ADME, organism-based, Kidney; design: dose 2 mg/kg, route intravenous; conditions: in vivo
[10] = Mean residence time in bile duct-cannulated beagle dog at 1 mg/kg, iv administered as 5 mins infusion followed by activated charcoal administration 10 to 420 mins post compound dosing; type: ADME, organism-based, Canis lupus familiaris; design: dose 1 mg/kg, route intravenous; conditions: in vivo
[11] = Volume of distribution at steady state in bile duct-cannulated beagle dog at 1 mg/kg, iv administered as 5 mins infusion followed by activated charcoal administration 10 to 420 mins post compound dosing; type: ADME, organism-based, Canis lupus familiaris; design: dose 1 mg/kg, route intravenous; conditions: in vivo, read-out: Vdss
Rattus norvegicus [12] = assay: Intestinal clearance in wild-type bile duct-cannulated Sprague-Dawley rat at 2 mg/kg, iv relative to total clearance; type: ADME, organism-based; design: dose 2 mg/kg, route intravenous; conditions: in vivo
[13] = Clearance in BCRP-knockout Sprague-Dawley rat at 2 mg/kg, iv; type: ADME, organism-based; design: dose 2 mg/kg, route intravenous; conditions: in vivo
Rattus norvegicus [14] = assay: Renal clearance in P-gp-knockout Sprague-Dawley rat at 2 mg/kg, iv relative to total clearance; type: ADME, organism-based, Kidney; design: dose 2 mg/kg, route intravenous; conditions: in vivo
Rattus norvegicus [15] = assay: Intestinal clearance in wild-type bile duct-cannulated Sprague-Dawley rat at 2 mg/kg, iv; type: ADME, organism-based; design: dose 2 mg/kg, route intravenous; conditions: in vivo
[16] = Volume of distribution at steady state in P-gp-knockout Sprague-Dawley rat at 2 mg/kg, iv; type: ADME, organism-based; design: dose 2 mg/kg, route intravenous; conditions: in vivo, read-out: Vdss
[17] = Mean residence time in wild-type 30 mins activated charcoal pre-treated bile duct-cannulated Sprague-Dawley rat at 2 mg/kg, iv followed by activated charcoal administration 5 to 180 mins post compound dosing; type: ADME, organism-based; design: dose 2 mg/kg, route intravenous; conditions: in vivo
[18] = Drug recovery in feces of bile duct-cannulated Sprague-Dawley rat at 2 mg/kg, iv measured up to 24 hrs; type: ADME, organism-based; design: dose 2 mg/kg, route intravenous; conditions: read-out: Drug recovery
Rattus norvegicus [19] = assay: Renal clearance in wild-type bile duct-cannulated Sprague-Dawley rat at 2 mg/kg, iv administered 0.125 hr post GF-120918 treatment relative to total clearance; type: ADME, organism-based, Kidney; design: dose 2 mg/kg, route intravenous; conditions: in vivo
Canis familiaris = assay: Intestinal clearance in bile duct-cannulated beagle dog at 1 mg/kg, iv administered as 5 mins infusion followed by activated charcoal administration 10 to 420 mins post compound dosing; type: ADME, organism-based, Canis lupus familiaris; design: dose 1 mg/kg, route intravenous; conditions: in vivo
[20] = Drug recovery in urine of bile duct-cannulated Sprague-Dawley rat at 2 mg/kg, iv measured up to 24 hrs; type: ADME, organism-based; design: dose 2 mg/kg, route intravenous; conditions: read-out: Drug recovery
Rattus norvegicus [21] = assay: Metabolism and biliary clearance at 8 hrs in wild-type bile duct-cannulated Sprague-Dawley rat at 2 mg/kg, iv administered 0.125 hr post GF-120918 treatment; type: ADME, organism-based; design: dose 2 mg/kg, route intravenous; conditions: in vivo
Rattus norvegicus [22] = assay: Intestinal clearance in wild-type bile duct-cannulated Sprague-Dawley rat at 2 mg/kg, iv administered 0.125 hr post GF-120918 treatment relative to total clearance; type: ADME, organism-based; design: dose 2 mg/kg, route intravenous; conditions: in vivo
[23] = Drug recovery in feces of beagle dog at 1 mg/kg, iv administered as 5 mins infusion measured up to 72 hrs; type: ADME, organism-based, Canis lupus familiaris; design: dose 1 mg/kg, route intravenous; conditions: read-out: Drug recovery
[24] = Drug recovery in feces of 30 mins activated charcoal pre-treated bile duct-cannulated Sprague-Dawley rat at 2 mg/kg, iv followed by activated charcoal administration 5 to 180 mins post compound dosing measured up to 48 hrs; type: ADME, organism-based; design: dose 2 mg/kg, route intravenous; conditions: read-out: Drug recovery
[25] = Half life in bile duct-cannulated beagle dog at 1 mg/kg, iv administered as 5 mins infusion; type: ADME, organism-based, Canis lupus familiaris; design: dose 1 mg/kg, route intravenous; conditions: in vivo

MRT [1]: 2.6 h
CL (Rattus norvegicus [2]): 37%
fraction unbound [3]: 0.04
dose excreted at 48 h [4]: 69.8%
dose excreted at 24 h [5]: 34.1%
Drug recovery [6]: 62.7%
MRT [7]: 1.7 h
fraction unbound [8]: 0.08
CL renal [9]: 13 mL/min/kg
MRT [10]: 1.9 h
Vd [11]: 0.2 L/kg
CL (Rattus norvegicus [12]): 21%
clearance [13]: 15 mL/min/kg
CL (Rattus norvegicus [14]): 43%
CL (Rattus norvegicus [15]): 0.3 L/h/kg
Vd [16]: 0.7 L/kg
MRT [17]: 36 min
dose excreted at 24 h [18]: 21.1%
CL (Rattus norvegicus [19]): 50%
CL (Canis familiaris): 31.2 mL/h/kg
dose excreted at 24 h [20]: 49.5%
CL (Rattus norvegicus [21]): 0.25 L/h/kg
CL (Rattus norvegicus [22]): 14%
dose excreted [23]: 50.8%
dose excreted [24]: 28.8%
half-life [25]: 174 min
Compound: COc1ccc(-n2nc(C(N)=O)c3c2[14C](=O)N(c2ccc(N4CCCCC4=O)cc2)CC3)cc1
